Results reported in PubChem BioAssay AID1549 (Sanford-Burnham Center for Chemical Genomics, 2009).
Activity calls are given as the source filed them. The rule behind the calls is not given here.

Molecular target: Influenza A virus M2 proton channel (A/TW/4845/1999 H1N1)
Assay: M2 proton channel binding, NMR based, influenza A virus H1N1 strain (AID 1549)
Conditions: NMR binding screen, M2 protein

Structure (SMILES) | Kd
CCOC(=O)c1c[nH]c2c(F)cccc2c1=O | > 4 mM (inactive)
NC(=O)C1CCN(Cc2ccccc2)CC1 | > 4 mM (inactive)
Cc1ccc2[nH]cc(CCN)c2c1 | > 4 mM (inactive)
c1ccc2c(c1)CN1CCCC1=N2 | > 4 mM (inactive)
Cc1nnsc1C(=O)N(C)c1ccccc1 | > 4 mM (inactive)
Cc1nc2ccc(NC(=O)N3CCOCC3)cc2s1 | > 4 mM (inactive)
CC1CCN(C(=O)c2cc3ccccc3o2)CC1 | > 4 mM (inactive)
CC(=O)Nc1cc(N2C(=O)C=CC2=O)ccc1Cl | > 4 mM (inactive)
COc1ccc(-c2c(OC)c3c(OC)c4c(cc3oc2=O)OC(C)(C)C=C4)cc1 | > 4 mM (inactive)
CCNC(=O)CC1Nc2ccccc2NC1=O (stereo unspecified) | > 4 mM (inactive)
CC(=O)Oc1cccc2ccc(=O)[nH]c12 | > 4 mM (inactive)
Cc1nnc(NCCCO)[nH]c1=O | > 4 mM (inactive)
Cc1cc(N2CCCC2=O)c(N)cc1N | > 4 mM (inactive)
COC1C(O)C(O)C(O)[C@@H](O)C1O (stereo partly specified) | > 4 mM (inactive)
NC(=O)c1cccc2c1OCCO2 | > 4 mM (inactive)
COCC(=O)Nc1ccc(C)c(Cl)c1 | > 4 mM (inactive)
O=C(Cn1cnc2ccccc2c1=O)N1CCOCC1 | > 4 mM (inactive)
OCc1ccc(CN2CCOCC2)cc1 | > 4 mM (inactive)
COc1cc2c(cc1O)CCNC2C (stereo unspecified) | > 4 mM (inactive)
O=C(O)CCC(=O)Nc1nccs1 | > 4 mM (inactive)
O=C1NNC(=O)C2C3c4ccccc4C(c4ccccc43)C12 (stereo unspecified) | > 4 mM (inactive)
COc1ccc([C@H]2COc3c(ccc(O)c3OC)C2)c(OC)c1O | > 4 mM (inactive)
O=C(O)c1snnc1-c1ccccc1 | > 4 mM (inactive)
CN1CCN(c2ccc(C(=O)O)cc2)CC1 | > 4 mM (inactive)
O=C(COc1ccccc1)N1CCc2ccccc2C1 | > 4 mM (inactive)
CC(=O)O[C@@H]1CC2C(C)(C)C(=O)C3OC3[C@]2(C)C2CC[C@@]3(C)[C@H](c4ccoc4)OC(=O)C4OC43[C@@]21C (stereo partly specified) | > 4 mM (inactive)

Structure (SMILES) | Kd
Cn1nnc2cc(C(=O)N3CCSCC3)ccc21 | > 4 mM (inactive)
Nc1ccc(O)cn1 | > 4 mM (inactive)
Cc1cc(C(=O)N2CCN(c3ncccn3)CC2)cs1 | > 4 mM (inactive)
COC1=CC23CCCN2CCc2cc4c(cc2C3C1O)OCO4 (stereo unspecified) | > 4 mM (inactive)
Cc1ccccc1NC(=O)N1CCOCC1 | > 4 mM (inactive)
O=C1NC(=S)N/C1=C\c1ccccc1 | > 4 mM (inactive)
CC(=O)Oc1ccc(O)cc1 | > 4 mM (inactive)
NC(=O)C1CC2C=CC1C2 (stereo unspecified) | > 4 mM (inactive)
Cc1nn(C)c(C)c1C(=O)O | > 4 mM (inactive)
CCC(=O)Nc1cccc(NC(C)=O)c1 | > 4 mM (inactive)
Cn1c(O)c(C2=NC(=S)NC2=O)c2ccccc21 | > 4 mM (inactive)
NC(=O)C(=O)Nc1nc(-c2ccccc2)cs1 | > 4 mM (inactive)
COc1ccc(C(=O)NNC(=S)NC(C)=O)cc1 | > 4 mM (inactive)
Cn1ncc(CO)c1-c1ccccc1 | > 4 mM (inactive)
CC(=O)c1c(O)cc(O)cc1O | > 4 mM (inactive)
CC(C)n1nnc2cc(C(=O)O)ccc21 | > 4 mM (inactive)
Cc1ccc(C(=O)N2CCC(C(=O)O)CC2)cc1 | > 4 mM (inactive)
N/C(=N/S(=O)(=O)c1cccs1)c1ccccc1 | > 4 mM (inactive)
O=C(Nc1ccc2c(c1)OCO2)c1c(F)cccc1F | > 4 mM (inactive)
CC(C)(C)CC(=O)N1CCC(C(N)=O)CC1 | > 4 mM (inactive)
Cc1cccc(CSc2nncc(=O)[nH]2)c1 | > 4 mM (inactive)
Cc1nc(-c2ccccc2)sc1CO | > 4 mM (inactive)
CN1CCn2c1nc(N1CCCCC1)nc2=O | > 4 mM (inactive)
Cc1nc2cc(Cl)ccc2n1CCO | > 4 mM (inactive)
Cc1[nH]c2ccccc2c(=O)c1CO | > 4 mM (inactive)
